The target in the experiment is T1, recombinant human plasminogen activator inhibitor-1 (PAI-1) (Homo sapiens, UniProt P05121).
T1 construct: purchased Molecular Innovations, Royal Oak, Mich
T1 sequence (P05121 24-402): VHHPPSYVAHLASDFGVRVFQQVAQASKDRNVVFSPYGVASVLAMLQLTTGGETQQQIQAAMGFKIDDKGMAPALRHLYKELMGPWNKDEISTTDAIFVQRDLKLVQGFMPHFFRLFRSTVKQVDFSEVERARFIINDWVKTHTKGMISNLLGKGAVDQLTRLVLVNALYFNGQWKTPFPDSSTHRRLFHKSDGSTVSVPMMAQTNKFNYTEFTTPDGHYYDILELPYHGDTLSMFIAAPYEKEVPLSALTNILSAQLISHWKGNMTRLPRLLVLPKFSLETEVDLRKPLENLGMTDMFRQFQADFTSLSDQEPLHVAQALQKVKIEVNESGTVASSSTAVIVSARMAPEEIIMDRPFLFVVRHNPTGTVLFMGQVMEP
The experiment can be described thus: Primary screen for the PAI-1 inhibition (chromogenic tPA activity, Spectrozyme-tPA). It is filed as biochemical. The conditions noted are these: compound at 100 μM. As to the method: Test compounds are dissolved in DMSO at a final concentration of 10 mM, then diluted 100× in physiologic buffer. The inhibitory assay is initiated by the addition of the substituted oxadiazolidinedione (1–100 μM final concentration, maximun DMSO concentration of 0.2%) in a pH 6.6 buffer containing 140 nM recombinant human plasminogen activator inhibitor-1 (PAI-1; Molecular Innovations, Royal Oak, Mich.). Following a 1 hour incubation at room temperature, 70 nM of recombinant human tissue plasminogen activator (tPA) is added, and the combination of the substituted oxadiazolidinedione, PAI-1 and tPA is incubated for an additional 30 minutes. Following the second incubation, Spectrozyme-tPA (American Diagnostica, Greenwich, Conn.), a chromogenic substrate for tPA, is added and absorbance read at 405 nm at 0 and 60 minutes. Relative PAI-1 inhibition is equal to the residual tPA activity in the presence of the test compound and PAI-1. Control treatments include the complete inhibition of tPA by PAI-1 at the molar ratio employed (2:1), and the absence of any effect of the substituted oxadiazolidinedione on tPA alone.
For `C=CCn1cc(Cn2oc(=O)[nH]c2=O)c2cc(OCc3cc(C(F)(F)F)cc(C(F)(F)F)c3)ccc21` [Compound 5, 2-[(1-allyl-5-{[3,5-bis(trifluoromethyl)benzyl]oxy}-1H-indol-3-yl)methyl]-1,2,4-oxadiazolidine-3,5-dione], the inhibition at 100 µM was 100%.
Same read-out and setting: the same measure for `O=c1[nH]c(=O)n(Cc2cn(Cc3ccccc3)c3ccc(OCc4cc(C(F)(F)F)cc(C(F)(F)F)c4)cc23)o1` [Compound 7, 2-[(1-benzyl-5-{[3,5-bis(trifluoromethyl)benzyl]oxy}-1H-indol-3-yl)methyl]-1,2,4-oxadiazolidine-3,5-dione]: 94%.
As for “2-[(3′-{[3-(trifluoromethyl)benzyl]oxy}-1,1′-biphenyl-3-yl)methyl]-1,2,4-oxadiazolidine-3,5-dione [Compound 41]”, the “% Inhibition @ 100 μM” value is recorded as 81%.
As to `Cc1cccc(COc2ccc3c(c2)c(Cn2oc(=O)[nH]c2=O)cn3Cc2ccccc2)c1` [Compound 11, 2-({1-benzyl-5-[(3-methylbenzyl)oxy]-1H-indol-3-yl}methyl)-1,2,4-oxadiazolidine-3,5-dione], the inhibition at 100 µM amounted to 59%.
On the same count and under the same terms, in the case of `O=c1[nH]c(=O)n(Cc2cccc(OCc3cccc(Br)c3)c2OCc2cccc(Br)c2)o1` [Compound 84, 2-{2,3-bis[(3-bromobenzyl)oxy]benzyl}-1,2,4-oxadiazolidine-3,5-dione] it was 95%; in that of `COc1cc(Cn2oc(=O)[nH]c2=O)cc(OCc2ccc(C(F)(F)F)cc2)c1OCc1ccc(C(F)(F)F)cc1` [Compound 76, 2-(3-methoxy-4,5-bis{[4-(trifluoromethyl)benzyl]oxy}benzyl)-1,2,4-oxadiazolidine-3,5-dione], 95%.
Take `O=c1[nH]c(=O)n(Cc2ccc(C#Cc3ccccc3)cc2)o1` [Compound 56, 2-[4-(phenylethynyl)benzyl]-1,2,4-oxadiazolidine-3,5-dione]: the inhibition at 100 µM came to 65%.
Still for that read-out and setting: the same measure for `Cc1cccc(COc2cc(Cn3oc(=O)[nH]c3=O)cc(OCc3cccc(C)c3)c2)c1` [Compound 73, 2-{3,5-bis[(3-methylbenzyl)oxy]benzyl}-1,2,4-oxadiazolidine-3,5-dione]: 81%; for `CC(C)(C)c1ccc(COc2cccc(-c3ccc(Cn4oc(=O)[nH]c4=O)cc3)c2)cc1` [Compound 53, 2-({3′-[(4-tert-butylbenzyl)oxy]-1,1′-biphenyl-4-yl}methyl)-1,2,4-oxadiazolidine-3,5-dione]: 60%.
Still for that read-out and setting: the same measure for `O=c1[nH]c(=O)n(Cc2ccc(C#CCOc3cccc(Cl)c3)cc2)o1` [Compound 63, 2-{4-[3-(3-chlorophenoxy)prop-1-ynyl]benzyl}-1,2,4-oxadiazolidine-3,5-dione]: 85%; for `O=c1[nH]c(=O)n(Cc2ccc(-c3cccc(OCc4ccc(Br)cc4)c3)cc2)o1` [Compound 54, 2-({3′-[(4-bromobenzyl)oxy]-1,1′-biphenyl-4-yl}methyl)-1,2,4-oxadiazolidine-3,5-dione]: 10%.
The same measure, in the same setting: the same measure for `O=c1[nH]c(=O)n(Cc2cccc(-c3cccc(OCc4ccc(Cl)c(Cl)c4)c3)c2)o1` [Compound 43, 2-({3′-[(3,4-dichlorobenzyl)oxy]-1,1′-biphenyl-3-yl}methyl)-1,2,4-oxadiazolidine-3,5-dione]: 100%.
On to “2-{3-[3-(4-isobutylphenoxy)prop-1-ynyl]benzyl}-1,2,4-oxadiazolidine-3,5-dione [Compound 70]”, for which the “% Inhibition @ 100 μM” value was determined as 76%.
With `O=c1[nH]c(=O)n(Cc2cn(Cc3ccccc3)c3ccc(OCc4ccc5ccccc5c4)cc23)o1` [Compound 22, 2-{[1-benzyl-5-(2-naphthylmethoxy)-1H-indol-3-yl]methyl}-1,2,4-oxadiazolidine-3,5-dione], the inhibition at 100 µM stood at 92%.
For `O=c1[nH]c(=O)n(Cc2cccc(OCc3ccccc3Br)c2OCc2ccccc2Br)o1` [Compound 85, 2-{2,3-bis[(2-bromobenzyl)oxy]benzyl}-1,2,4-oxadiazolidine-3,5-dione], the inhibition at 100 µM is 93%.
For the molecule `O=c1[nH]c(=O)n(Cc2cn(Cc3ccccc3)c3ccc(OCc4ccc(Br)cc4)cc23)o1` [Compound 14, 2-({1-benzyl-5-[(4-bromobenzyl)oxy]-1H-indol-3-yl}methyl)-1,2,4-oxadiazolidine-3,5-dione], the inhibition at 100 µM stood at 100%.
Still for that read-out and setting: the same measure for `CCCCC#Cc1ccc(Cn2oc(=O)[nH]c2=O)cc1` [Compound 57, 2-(4-hex-1-ynylbenzyl)-1,2,4-oxadiazolidine-3,5-dione]: 56%.
Same read-out and setting: the same measure for `CCn1cc(Cn2oc(=O)[nH]c2=O)c2cc(OCc3ccc(C(C)(C)C)cc3)ccc21` [Compound 3, 2-({5-[(4-tert-butylbenzyl)oxy]-1-ethyl-1H-indol-3-yl}methyl)-1,2,4-oxadiazolidine-3,5-dione]: 9%.
On the same count and under the same terms, in the case of `O=c1[nH]c(=O)n(Cc2cc(OCc3cccc(Cl)c3)cc(OCc3cccc(Cl)c3)c2)o1` [Compound 71, 2-{3,5-bis[(3-chlorobenzyl)oxy]benzyl}-1,2,4-oxadiazolidine-3,5-dione] it was 85%.
As to `O=c1[nH]c(=O)n(Cc2cccc(-c3cccc(OCc4cccc(Cl)c4)c3)c2)o1` [Compound 39, 2-({3′-[(3-chlorobenzyl)oxy]-1,1′-biphenyl-3-yl}methyl)-1,2,4-oxadiazolidine-3,5-dione], the inhibition at 100 µM was 99%.
Same read-out and setting: in the case of `O=c1[nH]c(=O)n(Cc2cc(OCc3ccc(C(F)(F)F)cc3)cc(OCc3ccc(C(F)(F)F)cc3)c2)o1` [Compound 72, 2-(3,5-bis{[4-(trifluoromethyl)benzyl]oxy}benzyl)-1,2,4-oxadiazolidine-3,5-dione] it was 87%; in that of `O=c1[nH]c(=O)n(Cc2cccc(-c3cccc(OCc4ccc(Cl)cc4)c3)c2)o1` [Compound 42, 2-({3′-[(4-chlorobenzyl)oxy]-1,1′-biphenyl-3-yl}methyl)-1,2,4-oxadiazolidine-3,5-dione], 100%; in that of `O=c1[nH]c(=O)n(Cc2cccc(-c3cccc(OCc4ccccc4Cl)c3)c2)o1` [Compound 36, 2-({3′-[(2-chlorobenzyl)oxy]-1,1′-biphenyl-3-yl}methyl)-1,2,4-oxadiazolidine-3,5-dione], 100%.
Same read-out and setting: the same measure for `C#CCn1cc(Cn2oc(=O)[nH]c2=O)c2cc(OCc3ccc(Cl)c(Cl)c3)ccc21` [Compound 18, 2-{[5-[(3,4-dichlorobenzyl)oxy]-1-(2-propynyl)-1H-indol-3-yl]methyl}-1,2,4-oxadiazolidine-3,5-dione]: 100%; for `CCn1cc(Cn2oc(=O)[nH]c2=O)c2cc(OCc3cc(C(F)(F)F)cc(C(F)(F)F)c3)ccc21` [Compound 6, 2-[(5-{[3,5-bis(trifluoromethyl)benzyl]oxy}-1-ethyl-1H-indol-3-yl)methyl]-1,2,4-oxadiazolidine-3,5-dione]: 28%; for `C=CCn1cc(Cn2oc(=O)[nH]c2=O)c2cc(OCc3cccc(C(F)(F)F)c3)ccc21` [Compound 29, 2-[(1-allyl-5-{[3-(trifluoromethyl)benzyl]oxy}-1H-indol-3-yl)methyl]-1,2,4-oxadiazolidine-3,5-dione]: 79%.
Same read-out and setting: the same measure for `O=c1[nH]c(=O)n(Cc2ccc(OCc3cccc(Br)c3)c(OCc3cccc(Br)c3)c2)o1` [Compound 89, 2-{3,4-bis[(3-bromobenzyl)oxy]benzyl}-1,2,4-oxadiazolidine-3,5-dione]: 88%.

Source of the values: patent publication US7141592B2, “Substituted oxadiazolidinediones” (Wyeth, priority 2003, dated 2006).
